From the supplement of paper PMC10307832

How the values were obtained:
Test in all cases: relative viability (nuclei count vs DMSO), 5 days (fraction); higher = more cells survive
Dasatinib + Navitoclax = compound: Cc1nc(Nc2ncc(C(=O)Nc3c(C)cccc3Cl)s2)cc(N2CCN(CCO)CC2)n1 [Dasatinib] + CC1(C)CCC(c2ccc(Cl)cc2)=C(CN2CCN(c3ccc(C(=O)NS(=O)(=O)c4ccc(N[C@H](CCN5CCOCC5)CSc5ccccc5)c(S(=O)(=O)C(F)(F)F)c4)cc3)CC2)C1 [Navitoclax] (partner 0.5 µM)
Summary of the method: (§1)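 One day after seeding in 1536-well plates, lung cancer cell lines were dosed by pin tool. Dosing was either single-drug or a fixed anchor-drug dose plus five library-drug doses (not always all listed) in √10 steps. After 5 days, nuclei were stained in one fix-and-stain step and counted on 4× images, and relative viability is the nuclei count of treated wells over that of vehicle wells, given as the median of duplicate plates.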

Dasatinib + AZD7762 = compound: Cc1nc(Nc2ncc(C(=O)Nc3c(C)cccc3Cl)s2)cc(N2CCN(CCO)CC2)n1 [Dasatinib] + NC(=O)Nc1cc(-c2cccc(F)c2)sc1C(=O)N[C@H]1CCCNC1 [AZD7762] (partner 0.2 µM)
Summary of the method: as §1

Dasatinib + Crizotinib = compound: Cc1nc(Nc2ncc(C(=O)Nc3c(C)cccc3Cl)s2)cc(N2CCN(CCO)CC2)n1 [Dasatinib] + C[C@@H](Oc1cc(-c2cnn(C3CCNCC3)c2)cnc1N)c1c(Cl)ccc(F)c1Cl [Crizotinib] (partner 1 µM)
Summary of the method: as §1

XMD13-2 + Alpelisib = compound: C1CC1C(=O)NC2=NNC3=C2C=CC(=C3)C4=CC(=CC=C4)C(=O)NC5CC5 [XMD13-2] + Cc1nc(NC(=O)N2CCC[C@H]2C(N)=O)sc1-c1ccnc(C(C)(C)C(F)(F)F)c1 [Alpelisib] (partner 2 µM)
Summary of the method: as §1

Cell Line	relative viability (Dasatinib + Navitoclax; first compound 0.005 µM)	relative viability (Dasatinib + Navitoclax; first compound 0.01581 µM)	relative viability (Dasatinib + Navitoclax; first compound 0.05 µM)	relative viability (Dasatinib + Navitoclax; first compound 0.1581 µM)	relative viability (Dasatinib + Navitoclax; first compound 0.5 µM)	relative viability (Dasatinib + AZD7762; first compound 0.005 µM)	relative viability (Dasatinib + AZD7762; first compound 0.01581 µM)	relative viability (Dasatinib + AZD7762; first compound 0.05 µM)	relative viability (Dasatinib + AZD7762; first compound 0.1581 µM)	relative viability (Dasatinib + AZD7762; first compound 0.5 µM)	relative viability (Dasatinib + Crizotinib; first compound 0.005 µM)	relative viability (Dasatinib + Crizotinib; first compound 0.01581 µM)	relative viability (Dasatinib + Crizotinib; first compound 0.05 µM)	relative viability (Dasatinib + Crizotinib; first compound 0.1581 µM)	relative viability (Dasatinib + Crizotinib; first compound 0.5 µM)	relative viability (XMD13-2 + Alpelisib; first compound 0.05 µM)	relative viability (XMD13-2 + Alpelisib; first compound 0.1581 µM)	relative viability (XMD13-2 + Alpelisib; first compound 0.5 µM)	relative viability (XMD13-2 + Alpelisib; first compound 1.581 µM)	relative viability (XMD13-2 + Alpelisib; first compound 5 µM)
PC-3 [JPC-3]	0.785	0.818	0.951	0.788	0.456	0.98	1.04	0.755	0.528	0.427	0.996	0.986	1.11	0.955	0.63	1.05	0.983	1.06	1.02	0.936
HCC-44	0.93	0.916	0.98	0.761	0.436	1.07	0.992	1.19	1.33	1.1	0.86	0.904	0.945	0.36	0.213	0.995	0.843	0.934	0.82	0.745
NCI-H2405	0.684	0.424	0.254	0.165	0.116	0.656	0.514	0.368	0.212	0.228	0.698	0.568	0.493	0.258	0.194	0.935	0.875	0.807	0.81	0.863
LXF-289	1.01	0.969	0.923	0.408	0.171	1.14	1.12	1.09	0.371	0.184	0.849	0.912	0.857	0.197	0.136	1.09	0.982	1.08	1.05	1.04
LOU-NH91	0.758	0.595	0.531	0.506	0.317	0.747	0.638	0.623	0.469	0.384	0.777	0.658	0.691	0.498	0.354	0.783	0.759	0.72	0.659	0.796
A549	1.27	1.2	1.27	1.06	0.443	–	–	–	–	–	0.563	0.642	0.415	0.264	0.131	1.05	0.709	0.812	0.714	0.952
H3255	0.542	0.527	0.388	0.187	0.115	0.899	0.856	0.832	0.686	0.372	0.901	0.757	0.617	0.557	0.27	0.858	0.597	0.658	0.729	0.624
NCI-H1395	1.01	0.971	0.91	0.609	0.476	0.401	0.39	0.358	0.356	0.356	–	–	–	–	–	1.3	1.07	0.976	0.984	1.1
LC-2-ad	0.553	0.418	0.341	0.13	0.1	0.871	0.727	0.599	0.337	0.268	0.416	0.329	0.326	0.257	0.2	0.983	0.887	0.939	0.938	0.79
NCI-H838	1.03	0.791	0.709	0.389	0.21	0.868	0.786	0.811	0.685	0.669	0.571	0.577	0.306	0.23	0.202	1.14	1.04	1.01	1	1.06
Calu-6	0.762	0.759	0.646	0.571	0.589	–	–	–	–	–	0.701	0.618	0.519	0.341	0.344	1.02	0.948	1.04	0.923	0.757
NCI-H1648	–	–	–	–	–	0.677	0.725	0.724	0.369	0.254	–	–	–	–	–	–	–	–	–	–
LCLC-97TM1	0.448	0.488	0.579	0.413	0.282	0.161	0.274	0.218	0.17	0.0853	0.336	0.485	0.307	0.238	0.146	0.214	0.262	0.225	0.206	0.146
HCC-15	0.692	0.528	0.555	0.332	0.239	1.37	1.12	1.07	0.897	0.585	0.873	0.699	0.743	0.514	0.489	0.91	0.811	0.911	0.878	0.619
CAL-12T	1.36	1.17	1.49	1.35	0.97	0.637	0.584	0.681	0.613	0.538	0.86	0.627	0.457	0.128	0.0903	1.31	1.18	1.24	1.11	1.4
NCI-H727	0.404	0.266	0.186	0.139	0.143	0.547	0.587	0.595	0.375	0.35	0.707	0.548	0.491	0.241	0.223	0.549	0.423	0.527	0.51	0.55
ABC-1	–	–	–	–	–	0.74	0.689	0.758	0.747	0.383	0.929	0.856	0.699	0.586	0.367	1.29	1.15	0.893	0.928	0.998
